The values below come from PubChem BioAssay (NCI).

The structures appear in SMILES notation.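 96-well plates; 48 h exposure; 5 concentrations. Endpoints by linear interpolation between flanking doses. Not reached: highest tested concentration assigned. The concentration for 50% growth inhibition is given as GI50. TGI marks complete inhibition of growth.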

Test systems include T-47D breast; IGROV1 ovarian; SK-MEL-2 melanoma; CCRF-CEM leukemia; NCI-H23 lung; RPMI-8226 leukemia; EKVX NSCLC; MDA-MB-231 breast; 786-0 renal; BT-549 breast; MDA-N.
Common to all, as to experiment: NCI tumour cell line growth inhibition, 48 h

Take `C[n+]1c(/C=C/c2c(O)ccc3ccccc23)ccc2ccccc21`: the GI50 in the assay with T-47D breast was 4.32 µM; in the assay on IGROV1 ovarian, 4.6 µM; in the assay on SK-MEL-2 melanoma, 5.91 µM; in the assay with CCRF-CEM leukemia it was 2.38 µM; in the assay with NCI-H23 lung, 5.1 µM; in the assay on RPMI-8226 leukemia, 1.73 µM. Also, the GI50 was 4.72 µM in the assay on EKVX NSCLC and 5.27 µM with MDA-MB-231 breast. Also, the TGI is 14.7 µM with T-47D breast; 12.7 µM with IGROV1 ovarian; 13.3 µM with SK-MEL-2 melanoma; 17.3 µM with CCRF-CEM leukemia; 13.7 µM with NCI-H23 lung; 10.1 µM in the assay on RPMI-8226 leukemia. Further, the TGI worked out at 12.9 µM in the assay with EKVX NSCLC and 12.2 µM with MDA-MB-231 breast.

As for `O=C(NCP(=O)(Oc1ccccc1)Oc1ccccc1)OCc1ccccc1`, the TGI with T-47D breast, with 786-0 renal, in the assay on BT-549 breast, in the assay on IGROV1 ovarian, with SK-MEL-2 melanoma and in the assay with CCRF-CEM leukemia was over 100 µM each time. Further, the TGI with NCI-H23 lung, with RPMI-8226 leukemia and with EKVX NSCLC was over 100 µM in each case.

Consider `On1c(-c2ccccc2)c(-c2ccccc2N2CCCC2)c2ccccc21`, for which the TGI in the assay on 786-0 renal, in the assay on IGROV1 ovarian, in the assay on SK-MEL-2 melanoma, in the assay with CCRF-CEM leukemia, in the assay on NCI-H23 lung and with RPMI-8226 leukemia was over 100 µM in each case. Also, the TGI with EKVX NSCLC is over 100 µM.

In the case of `CCCCCCCCCCCCCCCCNc1cccc2ccccc12`, the TGI in the assay on 786-0 renal, with IGROV1 ovarian, with CCRF-CEM leukemia, in the assay on NCI-H23 lung, with RPMI-8226 leukemia and in the assay with EKVX NSCLC was over 100 µM in each case.

On to `S=C1NC2=C(CSC/C2=C\c2cccc(Br)c2)C(c2cccc(Br)c2)N1` (configuration not stated), for which the TGI in the assay with T-47D breast, in the assay on 786-0 renal, in the assay with IGROV1 ovarian, in the assay on SK-MEL-2 melanoma, in the assay on CCRF-CEM leukemia and with MDA-N was over 100 µM throughout. Moreover, the TGI with NCI-H23 lung, with RPMI-8226 leukemia, in the assay on EKVX NSCLC and with MDA-MB-231 breast was over 100 µM in each case.

With `COc1ccc(C2OC(c3ccncc3)=NN2C)cc1F` (configuration not stated), the TGI in the assay on T-47D breast, in the assay on 786-0 renal, with IGROV1 ovarian, in the assay with SK-MEL-2 melanoma, with CCRF-CEM leukemia and with MDA-N was over 100 µM each time. Also, the TGI in the assay on NCI-H23 lung, with RPMI-8226 leukemia, in the assay on EKVX NSCLC and in the assay on MDA-MB-231 breast was over 100 µM each time.

`O=C1C=C/C(=N\N=C(c2ccccc2)c2ccccc2)O1`: the TGI in the assay on T-47D breast, in the assay with 786-0 renal, with IGROV1 ovarian, in the assay with CCRF-CEM leukemia, in the assay with MDA-N and in the assay on NCI-H23 lung was over 10 µM in each case. For the same molecule, the TGI in the assay with RPMI-8226 leukemia, in the assay with EKVX NSCLC and in the assay on MDA-MB-231 breast was over 10 µM throughout.

Consider `COc1cc2c(cc1OC)C1C3CCCCC3CCN1CC2` (configuration not stated), for which the TGI in the assay on T-47D breast, in the assay on 786-0 renal, in the assay with IGROV1 ovarian, in the assay with SK-MEL-2 melanoma, in the assay with CCRF-CEM leukemia and with NCI-H23 lung was over 100 µM each time. The TGI with EKVX NSCLC and in the assay on MDA-MB-231 breast was over 100 µM throughout.

As for `Cc1ccc(S(=O)(=O)n2c3c(c4ccccc42)CCN2C[C@H]([C@H](C)Br)CC[C@@H]32)cc1`, the TGI in the assay with T-47D breast, with 786-0 renal, with IGROV1 ovarian, in the assay with SK-MEL-2 melanoma, with CCRF-CEM leukemia and with MDA-N was over 100 µM throughout. The TGI in the assay with NCI-H23 lung, with RPMI-8226 leukemia, with EKVX NSCLC and in the assay with MDA-MB-231 breast was over 100 µM in each case.

`CCOC(=O)C1S/C(=N\C(=N)N[N+](=O)[O-])N=C1C` (configuration not stated): the TGI in the assay on 786-0 renal, in the assay on IGROV1 ovarian, in the assay on SK-MEL-2 melanoma, in the assay with NCI-H23 lung, with RPMI-8226 leukemia and in the assay with EKVX NSCLC was over 100 µM each time.

As for `OC[C@H]1O[C@@H]2O[C@@](COCc3ccccc3)([C@H](OCc3ccccc3)[C@H]2O)[C@@H]1OCc1ccccc1`, the TGI turned out to be 33 µM with T-47D breast; 30.7 µM with 786-0 renal; 37.2 µM with BT-549 breast; 27 µM in the assay on IGROV1 ovarian; 32 µM with SK-MEL-2 melanoma; 35.4 µM in the assay with CCRF-CEM leukemia. Further, the TGI came out at 34.1 µM in the assay on NCI-H23 lung, 32.4 µM in the assay with RPMI-8226 leukemia, 28 µM with EKVX NSCLC and 29.3 µM with MDA-MB-231 breast.

Consider `NC(=O)c1c(NC(=O)c2ccccc2)sc2c1CCC(=O)C2`, for which the GI50 with IGROV1 ovarian is 1.01 µM; with SK-MEL-2 melanoma, 2.4 µM; in the assay on CCRF-CEM leukemia it was 0.37 µM; in the assay with NCI-H23 lung it was 0.627 µM; in the assay on RPMI-8226 leukemia, 0.248 µM; in the assay with EKVX NSCLC, 1.82 µM. The GI50 in the assay on MDA-MB-231 breast is 2.3 µM. In addition, the TGI was 13.3 µM with IGROV1 ovarian; 7.21 µM in the assay with SK-MEL-2 melanoma; over 100 µM in the assay on CCRF-CEM leukemia; 5.83 µM in the assay with NCI-H23 lung; 0.751 µM with RPMI-8226 leukemia; 11.5 µM in the assay with EKVX NSCLC. The molecule also registered a TGI in the assay with MDA-MB-231 breast of 22.9 µM.

`C[N+](C)([O-])CCOc1cc2c(c3ccccc13)-c1ccccc1C2=O`: the TGI with IGROV1 ovarian was 99.8 µM; in the assay with SK-MEL-2 melanoma, 33.2 µM; in the assay with CCRF-CEM leukemia, over 83.7 µM; in the assay with NCI-H23 lung, 74.7 µM; with RPMI-8226 leukemia it was 44.1 µM; in the assay on EKVX NSCLC it was 64.7 µM.

In the case of `COc1cc2c(cc1OC)C(C(c1ccccc1)c1ccccc1)N(C)CC2` (configuration not stated), the TGI in the assay with IGROV1 ovarian, with SK-MEL-2 melanoma, in the assay with CCRF-CEM leukemia, in the assay with NCI-H23 lung, in the assay with RPMI-8226 leukemia and in the assay with EKVX NSCLC was over 100 µM throughout.
